This note sets out measurements from patent US20250057791A1, “PROTECTION AGAINST ARTHROPOD PARASITES WITH PURINERGIC RECEPTOR (OPR) ANTAGONISTS” (priority 2021, published 2025).

Assay [1] deals with A. gambiae mouthpart ATP-sensitive receptor. The assay is described as follows: Electrophysiological response to 200 pM ATP with PR antagonist admixed. In kind it is cell-based, Anopheles gambiae. As to conditions: for ID95 in nM (±s.e.m.): increasing doses admixed to 200 pM ATP; for ID50/ID95: block at maximum dose tested: admixed to 200 pM ATP; for effect on EP response to ATP, in words: suramin at 1 nM. How it is done: (§1) The tip recording method was used to record action potentials (spikes) from sensory cells in sensilla on A. gambiae labellum lobes.
(§2) Sensilla were exposed to test compounds and PR antagonists for ca. 2-4 s and spikes were counted in the first 2 s of recordings. Up to 4 test compounds were tested on a sensillum to evaluate potential agonists, each presented at 200 pM. To study responses as a function of dose for agonists ATP, adenosine, AMP, AMP-CPP and ATP+adenosine, up to 7 recordings were made at increasing doses of agonist from the same sensillum. Unless otherwise stated, recordings were made throughout from 4 to 16 sensilla from individual 4-6-day-old females per dose of agonist, antagonist and metal ion modulator. For example, a response curve established over 6 doses of an antagonist using 8 sensilla per dose involved recording from a sensillum of 48 separate mosquitoes. A given dose of a PR antagonist or metal ion modulator was only presented once to a sensillum. Two-second recordings were imported as ASCII files into DataView software for analysis of spike amplitude. Differences in spike amplitude generated by stimulation of one 8v sensillum/female with 1 mM sucrose (n=294 spikes from 6 females) 200 pM adenosine (n=207 spikes from 7 females) and 200 pM ATP (n=192 spikes from 7 females) were compared by measuring the spike amplitude in mV between the highest point of depolarisation and the lowest point of hyperpolarisation.
Pairwise comparisons of A. gambiae electrophysiological (EP) responses to ATP and adenosine alone and combined with a given dose of PR antagonist, EP responses to ATP alone and combined with a given dose of a metal modulator, and EP responses to ATP prior to and after exposure of a sensillum to a given dose of a PR antagonist were made with a one-tailed Wilcoxon signed-rank test for data showing a non-normal distribution, with a paired Student's t-test for normally distributed data showing homogeneous variance and with a Welch's t-test for normally distributed data showing non-homogeneous variance. Effects on feeding of adding ATP, AMP-CPP, adenosine, ATP+adenosine, AMP and ADP-βS, CPT with ATP or adenosine, TMP with ATP+adenosine, TMP+CPT with ATP+adenosine to the FS for A. gambiae, and of adding PR antagonists with ATP to the FS for A. stephensi were compared using one-tailed Mann-Whitney U-test or Welch's t-test, depending on data distribution; Holm's FWEC was applied where treatment comparisons involved the same positive control. Percent feeding inhibition induced by PR antagonists in A. stephensi was calculated using Abbott's formula.
Dose-response models fitted to mosquito data were generated using the ‘drm’ command in the “drc” R package (version 2.5-12). Best fitting models (goodness of fit) and effects of dose of a compound were assessed using, respectively, ‘modelFit’ and ‘noEffect’ functions in the same R package. A 3-parameter logistic model (L3) was fitted to spike-counts recorded to increasing doses of adenosine, AMP, ATP and AMP-CPP. Spike numbers recorded in response to 200 pM ATP with increasing doses of PR antagonists added were analysed using a 4-parameter log-logistic model (LL.4) for A-317491 and spinorphin, using a 4-parameter Weibull model (W1.4) for PPADS, RB-2 and TMP, and using a 3-parameter log-logistic model (LL.3) for suramin. An L3 model was fitted to proportions of females feeding on increasing doses of ATP. Feeding rates on 20 μM ATP with increasing doses of a PR antagonist added were analysed using a 4-parameter log-logistic model (LL.4) with the median of the positive control (20 μM ATP) fixed as the upper asymptote. Response dynamics in 3-parameter models are related to the slope b, the upper asymptote, and inflexion point of the model e (the ED50 value), whereas 4 parameter models also include the lower asymptote parameter. […]

The next assay concerns A. gambiae. Description: Membrane feeding assay, A. gambiae. Format: in vivo, Anopheles gambiae. The conditions noted are these: for effect on feeding on solution containing ATP, in words: 20 μM ATP, CPT at 10 μM; for feeding inhibition at maximum dose tested: maximum dose 20 μM; for feeding inhibition at maximum dose tested / % reduction in feeding: with 20 μM ATP. How it is done: (§3) Experiments with A. gambiae and A. stephensi were made in a climate chamber at 28° C. and 80% RH during the last 6 hours of scotophase. As a sugar meal can interfere with the blood meal by reducing the number of females that feed, the sucrose solution supplied in rearing cages to mosquitoes employed for feeding experiments was reduced to 5%. […] The 5% sucrose solution was presented to mosquitoes from emergence on four 1 cm diam. cotton dental rolls (Hartmann A G, Neuhausen, Switzerland) inserted in 10 ml upturned glass vials placed in holes at each corner of the rearing cage ceiling. Cotton rolls were turned daily in vials and renewed every two days. Mosquitoes were not fed blood and were deprived of sucrose 17 to 20 hours before experiments. Thirty min before a feeding experiment, between 10-25, 6-day-old females that responded to activation by human breath were removed with a mouth aspirator from the rearing cage wall and placed in polystyrol cylinders with the floor cut out (10 cm dm×15 cm high; Semadeni, Ostermundigen, Switzerland) that served as feeding cages. Each cage was covered with mosquito netting at one end and a soft polyurethane lid at the other.
(§4) Mosquitoes were fed for 30 min using a feeding system (Hemotek®, Hemotek Ltd, Blackburn, UK) consisting of 3.5 ml stainless steel reservoirs 37 mm in diameter covered with a 60-90 μm thick silicone-impregnated membrane (Kröber and Guerin, 2007 in “Feeding assays for hard ticks”, Trends in parasitology 23, 445-449; doi 10.1016/j.pt.2007.07.010). Feeding reservoirs reached a temperature of 37° C. within 10 min and were placed on the netting of feeding cages. Mosquitoes were activated using a 200 ms pulse of pure CO2 (volume 6.25 ml) from a pressurised cylinder (Carbagas, Switzerland) using a solenoid valve that caused the CO2 level in the feeding cage to rise to at least 1,500 ppm. Between 3 and 4 sets of 10 feeding cages held in a custom-built Ertacetal® POM frame were tested per day, depending of the number of female mosquitoes available from the colony.
(§5) All compounds were tested in a mosquito feeding solution (FS) consisting of 25 mM dextrose, 25 mM NaCl buffered with 8.93 mM NaHCO3 adjusted to pH 7.4. Feeding responses of A. gambiae and A. stephensi to ATP as a function of dose were tested with between 7 to 10 feeding cages per dose. Each feeding experiment with an antagonist systematically included a treatment containing the FS as negative control along with a treatment containing the FS with 20 pM ATP added as positive control for A. gambiae and with 160 pM ATP added as positive control for A. stephensi. These positive and negative controls permitted to monitor any effect of experimental day on feeding responses as a function of dose for antagonists that were recorded over several days. […] Four to 10 cages each with 10 to 29 mosquitoes were tested per antagonist dose. […] The number of feeding cages used to test other compounds and their mixtures as feeding stimulants or as feeding inhibitors is listed on Table 6. The percentage of fed mosquitoes was estimated by visual inspection of abdominal distention that is indicative of engorgement.
(§6) Pairwise comparisons of A. gambiae electrophysiological (EP) responses to ATP and adenosine alone and combined with a given dose of PR antagonist, EP responses to ATP alone and combined with a given dose of a metal modulator, and EP responses to ATP prior to and after exposure of a sensillum to a given dose of a PR antagonist were made with a one-tailed Wilcoxon signed-rank test for data showing a non-normal distribution, with a paired Student's t-test for normally distributed data showing homogeneous variance and with a Welch's t-test for normally distributed data showing non-homogeneous variance. […]

The test system of a further assay is A. stephensi. The assay is described as follows: Membrane feeding assay, A. stephensi. Format: in vivo, Anopheles stephensi. How it is done:
as §3, §4
as §5, with “with 20 pM ATP added as positive control for A. gambiae and with 160 pM ATP added as positive control for A. stephensi.” left out
as §6

For a further assay, the system named is malaria mosquito P1 PR. The assay is described as follows: Electrophysiological response to 200 pM adenosine with PR antagonist admixed. Format: cell-based, Anopheles gambiae. The conditions noted are these: 1 μM theophylline + 200 pM adenosine. How it is done: as §1
as §2, with “Differences in spike amplitude generated by stimulation of one 8v sensillum/female with 1 mM sucrose (n=294 spikes from 6 females) 200 pM adenosine (n=207 spikes from 7 females) and 200 pM ATP (n=192 spikes from 7 females) were compared by measuring the spike amplitude in mV between the highest point of depolarisation and the lowest point of hyperpolarisation.” left out
Pairwise comparisons of A. gambiae electrophysiological (EP) responses to ATP and adenosine alone and combined with a given dose of PR antagonist, EP responses to ATP alone and combined with a given dose of a metal modulator, and EP responses to ATP prior to and after exposure of a sensillum to a given dose of a PR antagonist were made with a one-tailed Wilcoxon signed-rank test for data showing a non-normal distribution, with a paired Student's t-test for normally distributed data showing homogeneous variance and with a Welch's t-test for normally distributed data showing non-homogeneous variance. […] Percent feeding inhibition induced by PR antagonists in A. stephensi was calculated using Abbott's formula.

Setting [2] is: antagonist 1000 nM + 200 pM ATP.

Residues, ends and D or L forms follow the SMILES beside them.

With `Cc1nc(/N=N/c2ccc(S(=O)(=O)O)cc2S(=O)(=O)O)c(COP(=O)(O)O)c(C=O)c1O` [PPADS, pyridoxal phosphate-6-azophenyl-2′,4′-disulfonic acid], the “Mean no. of spikes per 2 s (±s.e.m.), ATP + antagonist” value (shortened to “Mean no. of spikes per 2 s”) in assay [1] (antagonist 50 nM + 200 pM ATP) came out at 8.13 spikes per 2 s. In addition, the “ID95 in nM (±s.e.m.)” value in assay [1] is 12.66 nM. In addition, the “effect on feeding on solution containing ATP, in words” value (“effect on feeding” for short) with A. gambiae and in the assay with A. stephensi (doses as in Table 8) was “inhibited feeding” each time. Further, the “% fed mosquitoes (mean ± s.e.m.), ATP + antagonist” value (“% fed mosquitoes” below) with A. gambiae (antagonist 100 μM + 20 μM ATP) worked out at 33.39%. In the assay on A. stephensi (800 μM, feeding solution with 160 μM ATP), the “% Fed females (mean ± s.e.m.)” value turned out to be 37.29 ± 3.75%. The inhibition (in general, the share of the control response that was lost under treatment) at 800 µM with A. stephensi (Anopheles stephensi, 800 μM, Abbott's formula) was found to be 48.9%.
`Fc1ccc([C@@H]2CCNC[C@H]2COc2ccc3c(c2)OCO3)cc1` [Paroxetine, (3S,4R)-3-(1,3-benzodioxol-5-yloxymethyl)-4-(4-fluorophenyl)piperidine]: the “Mean no. of spikes per 2 s” value in assay [1] (antagonist 2000 nM + 200 pM ATP) stood at 27.6 spikes per 2 s. The “ID50/ID95: block at maximum dose tested” value in assay [1] (maximum dose 2 μM) was “No block (2 μM)”. Moreover, the “% fed mosquitoes” value in the assay on A. gambiae (antagonist 20 μM + 20 μM ATP) is 62.72%. Also, the “feeding inhibition at maximum dose tested” value with A. gambiae is given as “No feeding inhibition”.
As for `Nc1c(S(=O)(=O)O)cc(Nc2ccc(Nc3nc(Cl)nc(Nc4cccc(S(=O)(=O)O)c4)n3)c(S(=O)(=O)O)c2)c2c1C(=O)c1ccccc1C2=O` [RB-2, 1-amino-4-[[4-[[4-chloro-6-[[3 (or 4)-sulfophenyl]amino]-1,3,5-triazin-2-yl]amino]-3-sulfophenyl]amino]-9,10-dihydro-9,10-dioxo-2-anthracenesulfonic acid], in assay [1] (200 pM ATP), the “persistent antagonism to ATP presented approximately 2 min later, in words” value is “not” and the “effect on EP response to ATP, in words” value is given as “inhibited”. In addition, the “Mean no. of spikes per 2 s” value in assay [1] (antagonist 50 nM + 200 pM ATP) amounted to 12.83 spikes per 2 s. Further, the “ID95 in nM (±s.e.m.)” value in assay [1] is recorded as 113.02 nM. Also, the “effect on feeding” value with A. gambiae was “inhibited feeding”. Also, in the assay on A. gambiae (antagonist 0.1 μM + 20 μM ATP), the “% fed mosquitoes” value is 32.88%.
Take `Cn1c(=O)c2[nH]cnc2n(C)c1=O` [Theophylline, 1,3-dimethylxanthine]: the “EP response, adenosine theophylline combination” value with malaria mosquito P1 PR came to 17.63±4.48 spikes/2s.
Consider `CC(C)C[C@H](N)C(=O)N[C@H](C(=O)N[C@H](C(=O)N[C@@H](Cc1ccc(O)cc1)C(=O)N1CCC[C@H]1C(=O)N[C@@H](Cc1c[nH]c2ccccc12)C(=O)N[C@H](C(=O)O)[C@@H](C)O)C(C)C)C(C)C` [Spinorphin, L-leucyl-L-valyl-L-valyl-L-tyrosly-L-prolyl-L-tryptophyl-L-threonine] (H-LVVYPWT-OH), for which the “effect on EP response to ATP, in words” value in assay [1] (200 pM ATP) was “inhibited”. Also, the “Mean no. of spikes per 2 s” value in assay [1] (antagonist 1 nM + 200 pM ATP) came out at 9.8 spikes per 2 s. Also, the “ID95 in nM (±s.e.m.)” value is on record as 0.43 nM in assay [1] and “ca. 0.4 nM” in assay [1] (listed as spinorphin). Besides, in the assay with A. gambiae (100 nM), the “% reduction in feeding” value is “(100 nM, 27.31%)”. Also, the “effect on feeding” value in the assay on A. gambiae was “inhibited feeding”. In the assay with A. gambiae (antagonist 100 nM + 20 μM ATP), the “% fed mosquitoes” value is 46.62%.
Turning to `Clc1cccc(-c2nnnn2Cc2cccnc2)c1Cl` [A-438079, 3-[[5-(2,3-dichlorophenyl)tetrazol-1-yl]methyl]pyridine], the “Mean no. of spikes per 2 s” value in assay [1] (setting [2]) came to 22.57 spikes per 2 s. Also, the “ID50/ID95: block at maximum dose tested” value in assay [1] (maximum dose 1 μM) is “No block (1 μM)”. For the same molecule, the “% reduction in feeding” value in the assay with A. gambiae (20 μM) is “(20 μM, 30.74%)”. In the assay on A. gambiae (antagonist 20 μM + 20 μM ATP), the “% fed mosquitoes” value is 48.65%.
Take `Cc1nc(N=Nc2ccc(C(=O)O)cc2)c(COP(=O)(O)O)c(C=O)c1O` [MRS 2159, [2-[(4-carboxyphenyl)diazenyl]-4-formyl-6-methyl-5-oxidopyridin-3-yl]methyl phosphate]: the “Mean no. of spikes per 2 s” value in assay [1] (setting [2]) turned out to be 27.14 spikes per 2 s. Also, in assay [1] (maximum dose 1 μM), the “ID50/ID95: block at maximum dose tested” value was “No block (1 μM)”. For the same molecule, in the assay on A. gambiae (antagonist 20 μM + 20 μM ATP), the “% fed mosquitoes” value worked out at 79.19%. The “feeding inhibition at maximum dose tested” value with A. gambiae is “No feeding inhibition”.
